Molecules are shown by their SMILES. Converted amounts (≈) assume the structure as drawn.

Holding throughout (format): cell-based
Assay [1] concerns Aspergillus niger. The experiment in a line: Antifungal MIC, microtiter broth dilution. The following applies: 35° C., 24-48 hours. Here is the method: (§1) The antifungal activity for the hydroxyesters of 7-desmethylrapamycin of this invention was confirmed in a standard pharmacological test procedure which measured the ability of the compound being evaluated to inhibit fungal growth. 7-Desmethylrapamycin 42-ester with 3-hydroxy-2-(hydroxymethyl)-2-methylpropionic acid (Compound I) was evaluated as a representative compound of this invention. The procedure used and results obtained are briefly described below. A 96 U-bottom microtiter plate was filled (50 μl/well) with RPMI 1640. The compounds to be evaluated were placed in appropriate wells, and serial diluted in successive wells to provide 11 dilutions. The concentrations ranged from 64 through 0.06 μg/ml. An adjusted inoculum of fungi (50 μl) was added to each well and the plates were incubated at 35° C. for 24-48 hours. […] Nystatin and amphotericin B were used for the purpose of comparison.

Assay [2] deals with Candida albicans. Put plainly: Antifungal MIC, microtiter broth dilution. The settings on record: 35° C., 24-48 hours. Here is the method:
as §1

Assay [3] concerns Candida pseudotropicalis. The experiment in a line: Antifungal MIC, microtiter broth dilution. The settings on record: Candida pseudotropicalis strain ATCC 28838; 35° C., 24-48 hours. Here is the method: as §1
Assay [4] concerns Candida lusitaniae. The experiment in a line: Antifungal MIC, microtiter broth dilution. The following applies: Candida lusitaniae strain 94-3; 35° C., 24-48 hours. Here is the method: as §1
For assay [5], the system named is Candida krussii. Put plainly: Antifungal MIC, microtiter broth dilution. The settings on record: Candida krussii strain 94-2; 35° C., 24-48 hours. Here is the method:
as §1

For assay [6], the system named is Candida tropicalis. Put plainly: Antifungal MIC, microtiter broth dilution. The following applies: 35° C., 24-48 hours. Here is the method: as §1
Assay [7] deals with Aspergillus fumigatus. Put plainly: Antifungal MIC, microtiter broth dilution. The following applies: Aspergillus fumigatus strain ATCC 26933; 35° C., 24-48 hours. Here is the method: as §1
The subject of assay [8] is Candida parapsilosis. The experiment in a line: Antifungal MIC, microtiter broth dilution. The settings on record: 35° C., 24-48 hours. Here is the method:
as §1

In assay [9] the test system is Candida rugosa. Put plainly: Antifungal MIC, microtiter broth dilution. The settings on record: Candida rugosa strain 94-10; 35° C., 24-48 hours. Here is the method:
as §1

The test system of assay [10] is U87MG human glioblastoma cells. Put plainly: Inhibition of U87MG human glioblastoma cell growth (3H-thymidine incorporation). The following applies: 48 hours incubation. Here is the method:
The antineoplastic activity of the compounds of this invention were confirmed in a standard pharmacological test procedure which measures the inhibition of U87MG human glioblastoma cell growth (as a function of ^3H-thymidine incorporation), using 7-desmethylrapamycin 42-ester with 3-hydroxy-2-(hydroxymethyl)-2-methylpropionic acid (Compound I) as are presentative compound of this invention. The following briefly describes the procedure used and results obtained. U87MG human glioblastoma cells (ATCC # HTB-14; available from the American Type Culture Collection; 10801 University Boulevard; Manassas, Va. 20110;), were grown in the following media.
BRL Minimum Essential Medium with Earle Salts (500 mL)
+5 mL BRL MEM Non-Essential Amino Acids (10 mM)
+5 mL BRL Penicillin-Streptomycin (10000 u/mL, 10000 μg/mL)
+5 mL BRL Na Pyruvate Solution (100 mM)
+5 mL BRL L-Glutamine 200 mM
+50 mL BRL Fetal Bovine Serum (Qualified)
1. Cells were trypsinized and plated at a concentration of 10^4 cells/well in a final volume of 200 μL growth medium in 96-well flat bottom plates and allowed to adhere for 24 hours at 37° C.
2. The media was removed by aspiration with care to not disturb the cell monolayer. 200 μL of fresh growth media was added per well, allowing enough wells for samples to be run in triplicate. […]
4. […] Mats were counted in a Wallac Betaplate counter.

Where [11] appears, read: Candida albicans strain ATCC 90028.
Setting [12] is: Candida tropicalis strain 94-13.
Where [13] appears, read: Candida tropicalis strain 94-14.
Setting [14] is: Candida parapsilosis strain 94-8.
The mark [15] stands for this setting: Candida parapsilosis strain 94-9.
Setting [16] is: Candida parapsilosis strain ATCC 90018.

Turning to `C[C@@H]1[C@H](O)[C@@H](C)/C=C/C=C/C=C/C=C/C=C/C=C/C=C/[C@H](O[C@@H]2O[C@H](C)[C@@H](O)[C@H](N)[C@@H]2O)C[C@@H]2O[C@](O)(C[C@@H](O)C[C@@H](O)[C@H](O)CC[C@@H](O)C[C@@H](O)CC(=O)O[C@H]1C)C[C@H](O)[C@H]2C(=O)O` [Amphotericin B, amphotericin B], the “ANTIFUNGAL ACTIVITY (MIC)” value is 0.50 µg/mL in assay [1] (Aspergillus niger strain S399); 0.25 µg/mL in [1] (Aspergillus niger strain S430); “≦0.06 μg/mL” in assay [2] (Candida albicans strain 1063); 0.12 µg/mL in assay [2] (Candida albicans strain 1117); 0.12 µg/mL in [2] (setting [11]); “≦0.06 μg/mL” in [3]. The “ANTIFUNGAL ACTIVITY (MIC)” value in assay [4] was “≦0.06 μg/mL”; in [5], 0.12 µg/mL; in assay [6] (setting [12]), “≦0.06 μg/mL”; in [6] (setting [13]), “≦0.06 μg/mL”; in assay [7] it was 0.25 µg/mL; in assay [8] (setting [14]), “≦0.06 μg/mL”. The “ANTIFUNGAL ACTIVITY (MIC)” value in [8] (setting [15]) was 0.12 µg/mL; in [8] (setting [16]) it was “≦0.06 μg/mL”; in assay [9], 0.25 µg/mL.

For `CO[C@@H]1C[C@H](C[C@@H](C)[C@@H]2CC(=O)[C@H](C)/C=C(\C)[C@@H](O)[C@@H](OC)C(=O)[C@H](C)C[C@H](C)/C=C/C=C/C=C(\C)[C@@H](O)C[C@@H]3CC[C@@H](C)[C@@](O)(O3)C(=O)C(=O)N3CCCC[C@H]3C(=O)O2)CC[C@H]1OC(=O)C(C)(CO)CO` [Compound I, 7-Desmethylrapamycin 42-ester with 3-hydroxy-2-(hydroxymethyl)-2-methylpropionic acid], the “ANTIFUNGAL ACTIVITY (MIC)” value is 64 µg/mL in assay [1] (Aspergillus niger strain S399); 64 µg/mL in assay [1] (Aspergillus niger strain S430); 1 µg/mL in assay [2] (Candida albicans strain 1063); 4 µg/mL in assay [2] (Candida albicans strain 1117); 1 µg/mL in assay [2] (setting [11]); 2 µg/mL in assay [3]. The “ANTIFUNGAL ACTIVITY (MIC)” value in assay [4] is 1 µg/mL; in assay [5], 0.5 µg/mL; in assay [6] (setting [12]) it was 1 µg/mL; in assay [6] (setting [13]) it was 1 µg/mL; in assay [7], 64 µg/mL; in assay [8] (setting [14]), 2 µg/mL. For the same compound, the “ANTIFUNGAL ACTIVITY (MIC)” value in assay [8] (setting [15]) was 4 µg/mL; in [8] (setting [16]) it was 2 µg/mL; in assay [9], 2 µg/mL. Moreover, the IC50 in assay [10] is 0.0065 µg/mL (≈ 6.4 nM).

Turning to `C[C@@H]1[C@H](O)[C@@H](C)/C=C/C=C/CC/C=C/C=C/C=C/C=C/C(O[C@H]2O[C@H](C)[C@@H](O)[C@H](N)[C@@H]2O)CC2O[C@](O)(CC(O)C(O)CCC(O)CC(O)CC(O)CC(=O)O[C@H]1C)CC(O)C2C(=O)O` (stereo partly shown) [Nystatin], the “ANTIFUNGAL ACTIVITY (MIC)” value worked out at 2 µg/mL in assay [1] (Aspergillus niger strain S399); 1 µg/mL in assay [1] (Aspergillus niger strain S430); 1 µg/mL in [2] (Candida albicans strain 1063); 1 µg/mL in [2] (Candida albicans strain 1117); 1 µg/mL in [2] (setting [11]); 1 µg/mL in [3]. Further, the “ANTIFUNGAL ACTIVITY (MIC)” value was 1 µg/mL in assay [4]; 1 µg/mL in [5]; 1 µg/mL in [6] (setting [12]); 1 µg/mL in assay [6] (setting [13]); 2 µg/mL in [7]; 2 µg/mL in assay [8] (setting [14]). Also, the “ANTIFUNGAL ACTIVITY (MIC)” value in [8] (setting [15]) stood at 1 µg/mL; in assay [8] (setting [16]), 2 µg/mL; in assay [9], 1 µg/mL.

The values above are taken from patent US6399626B1, “Hydroxyesters of 7-desmethylrapamycin” (Wyeth, priority 2000, dated 2002).
